Results as given in PubChem BioAssay AID2060492 (Molecular Pharmacology Branch, DTP, NCI, 2025).

Tested on: 695427-040-R-J1-PDC complex spheroids, viability percent T/C
Assay: Anticancer human tumor 695427-040-R-J1-PDC patient-derived colon adenocarcinoma cell line growth inhibition [GQUAD]
Details: for IC50: curve of first compound; for viability, T/C: stronger effect = lower value
Description: DNA G-quadruplex Stabilizer Agents in Combinations in Complex Spheroids
A high-throughput screen of multi-cell type tumor spheroids was designed to identify active combinations of DNA G-quadruplex stabilizer agents and targeted small molecules. Complex spheroids include a stromal component modeled by human endothelial cells (HUVEC) and fibroblasts modeled by human mesenchymal stem cells (MSCs). The concentration ranges selected for each drug and investigational agent were based upon clinically achievable concentrations if the clinical Cmax of the agent was known.
Compounds. The drugs and investigational agents: pidnarulex (CX-5461; NSC782164), APTO-253 (NSC789042), BRACO-19 (NSC847499), peposertib (NSC802822), ceralasertib (NSC780249), elimusertib (NSC800525), camonsertib (NSC841442), AZD-1390 (NSC803789), olaparib (NSC753686), talazoparib (NSC767125), ART-558 (NSC835418), sotorasib (NSC818433), MRTX-1133 (NSC836407), SN-38 (NSC673596), topotecan (NSC609699), etoposide (NSC141540), doxorubicin (NSC123127), gemcitabine (NSC613327), 5-fluorouracil (NSC19893), paclitaxel (NSC125973), vemurafenib (NSC761431), panobinostat (NSC761190), R-306465 (JNJ-16241199; NSC773264), adavosertib (NSC754352), TP-3654 (NSC805149), carboplatin (NSC241240), KSQ-4279 (NSC840948), and staurosporine (NSC755774) were obtained from the National Cancer Institute (NCI) Developmental Therapeutics Program Chemical Repository (34). The FDA-approved anticancer drug set is available from the NCI Developmental Therapeutics Program. […] The stock solutions were prepared in dimethyl sulfoxide (DMSO, Sigma-Aldrich, St. Louis, MO, cat. D2650) at 800-fold the tested concentration and stored at -70 degrees C prior to their use. All drugs and investigational agents were tested over a range starting from a high concentration at or near the clinical Cmax and decreasing in half-log increments. If the clinical Cmax for an agent had not been determined, the highest concentration tested was 10 microM.
2.3 Cell Culture. All cells were maintained in an incubator at 37 degrees C and 5% CO2 with 95% humidity. The PDC lines were cultured according to standard operating procedures established by the NCI PDMR. All PDCs were thawed and cultured in Matrigel-coated flasks prepared with a working solution of 1X Ham's F-12 nutrient mix, without supplementation (Invitrogen, cat. 11765054), 100 U/mL penicillin-streptomycin (Invitrogen, cat. 15140122), and 2.5% Matrigel (Corning Inc., cat. 354248) for the first three passages. The 857933-349-R-J2-PDC line was cultured in 6C/Colon 1B media, which includes advanced DMEM/F-12 (Thermo Fisher Scientific, cat. 12634028), 10 mM HEPES (Thermo Fisher Scientific, cat. 15630080), 1X GlutaMAX supplement (Thermo Fisher Scientific, cat. 35050061), 0.1 mg/mL primocin (InvivoGen, cat. ant-pm-2), 10% defined fetal bovine serum, heat inactivated (HyClone Laboratories Inc., cat. SH30070.03HI), 50% L-WRN conditioned media (ATCC, cat. CRL-3276), 1.25 mM N-Acetyl-L-cysteine (Sigma-Aldrich, cat. A9165), 10 mM nicotinamide (Sigma-Aldrich, cat. N0636), 1X B-27 supplement (Thermo Fisher Scientific, cat. 17504044), 1X N-2 supplement (Thermo Fisher Scientific, cat. 17502048), 10 microM Y-27632 dihydrochloride (Tocris Bioscience, cat. 1254), and 50 ng/mL human EGF recombinant protein (Thermo Fisher Scientific, cat. PHG0311). The 485176-168-R4-J1-PDC line was cultured in Panc media, which includes all 6C/Colon 1B media components plus 100 ng/mL human FGF-10 (Thermo Fisher Scientific, cat. 100-26), 500 nM SB-431542 (Selleckchem, cat. S1067), and gastrin (Tocris, cat. 3006).
[…]

[1] = second compound 0.0316 µM, first compound 0.0316 µM
[2] = second compound 0.0316 µM, first compound 0.1 µM
[3] = second compound 0.0316 µM, first compound 0.316 µM
[4] = second compound 0.0316 µM, first compound 1 µM
[5] = second compound 0.0316 µM, first compound 3.16 µM
[6] = second compound 0.0316 µM, first compound 10 µM
[7] = second compound 0.1 µM, first compound 0.0316 µM
[8] = second compound 0.1 µM, first compound 0.1 µM
[9] = second compound 0.1 µM, first compound 0.316 µM
[10] = second compound 0.1 µM, first compound 1 µM
[11] = second compound 0.1 µM, first compound 3.16 µM
[12] = second compound 0.1 µM, first compound 10 µM
[13] = second compound 0.316 µM, first compound 0.0316 µM
[14] = second compound 0.316 µM, first compound 0.1 µM
[15] = second compound 0.316 µM, first compound 0.316 µM
[16] = second compound 0.316 µM, first compound 1 µM
[17] = second compound 0.316 µM, first compound 3.16 µM
[18] = second compound 0.316 µM, first compound 10 µM
[19] = second compound 1 µM, first compound 0.0316 µM
[20] = second compound 1 µM, first compound 0.1 µM
[21] = second compound 1 µM, first compound 0.316 µM
[22] = second compound 1 µM, first compound 1 µM
[23] = second compound 1 µM, first compound 3.16 µM
[24] = second compound 1 µM, first compound 10 µM
[25] = second compound 3.16 µM, first compound 0.0316 µM
[26] = second compound 3.16 µM, first compound 0.1 µM
[27] = second compound 3.16 µM, first compound 0.316 µM
[28] = second compound 3.16 µM, first compound 1 µM
[29] = second compound 3.16 µM, first compound 3.16 µM
[30] = second compound 3.16 µM, first compound 10 µM
[31] = second compound 10 µM, first compound 0.0316 µM
[32] = second compound 10 µM, first compound 0.1 µM
[33] = second compound 10 µM, first compound 0.316 µM
[34] = second compound 10 µM, first compound 1 µM
[35] = second compound 10 µM, first compound 3.16 µM
[36] = second compound 10 µM, first compound 10 µM
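Note: spheroids exposed to compounds for seven days before readout.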

`COc1ncnc(C2CC2)c1-c1ncc2cnn(Cc3ccc(-c4nc(C(F)(F)F)cn4C(C)C)cc3)c2n1` + CN(C)c1ccc(Nc2c3ccc(NC(=O)CCN4CCCC4)cc3nc3cc(NC(=O)CCN4CCCC4)ccc23)cc1 was tested, and the IC50 (second compound 0.0316 µM) was over 10 µM, the IC50 (second compound 0.1 µM) was over 10 µM and the IC50 (second compound 0.316 µM) was over 10 µM. The IC50 (second compound 1 µM) was over 10 µM, the IC50 (second compound 3.16 µM) was over 10 µM and the IC50 (second compound 10 µM) was over 10 µM. For the same compound, the viability, T/C [1] was 101%, the viability, T/C [2] was 92.4% and the viability, T/C [3] was 91.7%. The viability, T/C [4] was 96.4%, the viability, T/C [5] was 105% and the viability, T/C [6] was 102%. The viability, T/C [7] was 105%, the viability, T/C [8] was 95.4% and the viability, T/C [9] was 91.1%. For the same compound, the viability, T/C [10] was 93.2%, the viability, T/C [11] was 101% and the viability, T/C [12] was 101%. For the same compound, the viability, T/C [13] was 97.7%, the viability, T/C [14] was 97.5% and the viability, T/C [15] was 88.9%. For the same compound, the viability, T/C [16] was 94.3%, the viability, T/C [17] was 96.1% and the viability, T/C [18] was 83.1%. The viability, T/C [19] was 96.7%, the viability, T/C [20] was 93.7% and the viability, T/C [21] was 91.5%. It also gave a viability, T/C [22] of 91.3%, a viability, T/C [23] of 101% and a viability, T/C [24] of 93.3%. For the same compound, the viability, T/C [25] was 93.9%, the viability, T/C [26] was 91.7% and the viability, T/C [27] was 84.9%. It also gave a viability, T/C [28] of 96.6%, a viability, T/C [29] of 99% and a viability, T/C [30] of 92.9%. For the same compound, the viability, T/C [31] was 83.3%, the viability, T/C [32] was 80.6% and the viability, T/C [33] was 85.5%. It also gave a viability, T/C [34] of 80.8%, a viability, T/C [35] of 79.7% and a viability, T/C [36] of 75%.
For `CC1COCCN1c1cc(C2(S(C)(=N)=O)CC2)nc(-c2ccnc3[nH]ccc23)n1` (centres undefined) + Cc1[nH]c2ccc(F)cc2c1-c1nc2c3cccnc3c3ncccc3c2[nH]1, the IC50 (second compound 0.0316 µM) was over 10 µM, the IC50 (second compound 0.1 µM) was over 10 µM and the IC50 (second compound 0.316 µM) was over 10 µM. For the same compound, the IC50 (second compound 1 µM) was over 10 µM, the IC50 (second compound 3.16 µM) was over 10 µM and the IC50 (second compound 10 µM) was over 10 µM. For the same compound, the viability, T/C [1] was 99.3%, the viability, T/C [2] was 101% and the viability, T/C [3] was 87.6%. For the same compound, the viability, T/C [4] was 73.9%, the viability, T/C [5] was 76.9% and the viability, T/C [6] was 57.4%. For the same compound, the viability, T/C [7] was 103%, the viability, T/C [8] was 72.5% and the viability, T/C [9] was 102%. It also gave a viability, T/C [10] of 89.3%, a viability, T/C [11] of 73.2% and a viability, T/C [12] of 62.2%. The viability, T/C [13] was 87.9%, the viability, T/C [14] was 80.1% and the viability, T/C [15] was 84.8%. For the same compound, the viability, T/C [16] was 84.9%, the viability, T/C [17] was 74.6% and the viability, T/C [18] was 61.5%. The viability, T/C [19] was 70.5%, the viability, T/C [20] was 71.7% and the viability, T/C [21] was 70.3%. The viability, T/C [22] was 97%, the viability, T/C [23] was 83% and the viability, T/C [24] was 65.8%. The viability, T/C [25] was 61.9%, the viability, T/C [26] was 84% and the viability, T/C [27] was 75.9%. It also gave a viability, T/C [28] of 81.8%, a viability, T/C [29] of 71.9% and a viability, T/C [30] of 61.2%. For the same compound, the viability, T/C [31] was 66%, the viability, T/C [32] was 67.9% and the viability, T/C [33] was 80.8%. It also gave a viability, T/C [34] of 82%, a viability, T/C [35] of 67.6% and a viability, T/C [36] of 54.3%.
